Several values for one entry are separate records, joined by “and”; a condition that tells them apart may be missing. Identical values can stand only once. Like-named read-outs stand apart in the source and are kept apart here.
Columns and labels:
[1] = LC-MS/MS quantification of Cmin in plasma samples from breast cancer patients (clinical study CRO-2018-83); format: in vivo, human; conditions: for concentration at 15 h / concentration at 30 h: human, plasma, oral; for concentration at 15 h: patient 7, sample 9, PALBO 125 mg/day; for concentration at 30 h: patient 8, sample 10, RIBO 600 mg/day + LETRO 2.5 mg/day
Procedure: Preparation of calibration curve and QCs samples was conducted through the following steps: 1) 5 μL of working solutions were added to 95 μL of blank human plasma (dilution 1:20) and vortexed for 10 s; 2) a 10 μL-aliquot of this mix was added with 80 μL of cold IS working solution (see “Standard solutions preparation” section), vortexed and then centrifuged for 15 min at 16200 g and 4°C; 3) 70 μL of the supernatant were transferred to a polypropylene tube for the following analysis. […] The preparation of patients’ samples was conducted as following: patient plasma was thawed at room temperature, vortexed for 10 s and centrifuged, for 10 min, at 3000 g and 4°C; 10 μL of plasma was then treated according to steps 2) and 3).
The HPLC system was a SIL-20AC XR auto-sampler and LC-20AD UFLC XR pumps (Shimadzu, Tokyo, Japan). The mobile phases (MP) consisted of ultrapure water with 0.1% HCOOH (phase A) and methanol/isopropanol (9:1, v/v) with 0.1% HCOOH (phase B). The chromatographic separation was obtained on the Luna Omega Polar C18 column ([…], 100 Å, 50 x 2.1 mm) coupled with a Security Guard Cartridge (Polar, C18, 4 x 2.0 mm), both provided by Phenomenex (Castel Maggiore (BO), Italy). The mass spectrometry system used for the detection was an API 4000 triple quadrupole (AB SCIEX, Massachusetts, USA) with a TurboIonSpray source operating in positive ion mode. To optimize source and compound dependent parameters, solutions of each analyte at the concentration of 100 ng/mL were used with a flow rate of 20 μL/min. Data were processed with Analyst 1.6.3 and the quantification of the peaks was done with MultiQuant 2.1 (software package AB SCIEX).
The exclusion criteria were to be non-collaborative and/or unreliable patients and refusal of informed consent. Patients were asked to periodically (every two months) collect plasma samples for the estimation of PALBO or RIBO and/or LETRO Cmin during their therapy treatment.
Plasma was obtained immediately by centrifugation of the blood samples at 3000 g for 10 min at 4°C. Then the obtained plasma was split into two independent aliquots and stored at -80°C in two different freezers.
At present, each of the 10 patients’ samples collected were quantified in 2 separate runs during 2 different working days, to further assess the reproducibility of the proposed method. In fact, as recently introduced in the last version of the FDA guideline, incurred samples re-analysis (ISR) is necessary to show the reliability of the reported analyte concentrations obtained with a bioanalytical method. ISR is conducted by repeating the analysis of a subset of patients’ samples in separate runs. The two analyses can be considered equivalent if the percentage difference [expressed as: (repeat-original)*100/mean] between the first and the second concentration measured is within ±20% for at least 67% of the samples [23, 24].

[2] = Bench-top stability in human plasma, 4 h at room temperature; format: in vitro ADME; conditions: for Acc. %, T = 4h (RT): % of nominal
Procedure: (§1) Stability tests were conducted using QCs prepared in triplicate at each concentration (L, M, H): bench-top stability was investigated after 4 h at room temperature; stability of the deproteinized QCs was evaluated in autosampler set at 4 °C re-analysing the samples 24, 48, and 72 h after the first injection; freeze/thaw stability was assessed by analysing three freshly prepared aliquots of each QCs concentration, and then again after one and two freeze/thaw cycles.

[3] = Stability of deproteinized QCs in autosampler at 4 °C; format: physicochemical; conditions: for Acc. %, T = 72 h in autosampler (4°C): % of nominal
Procedure: as §1

[4] = Long term stability in human plasma at -80°C; format: in vitro ADME; conditions: for Acc. %, stored at -80ºC over 2 months (plasma): % of nominal
[5] = Long term stability of working solutions in methanol at -20°C; format: physicochemical; conditions: for Acc. %, stored at -20ºC over 2 months (methanol): % of nominal
[6] = cited from earlier work
[7] = set-up: method as in PMID 29862467; conditions: exposure-efficacy analysis in patients; cited from earlier work
[8] = plasma QC high: nominal 200.00 PALBO / 8000.00 RIBO / 400.00 LETRO ng/mL
[9] = plasma QC low: nominal 0.50 PALBO / 20.00 RIBO / 1.00 LETRO ng/mL
[10] = plasma QC medium: nominal 20.00 PALBO / 800.00 RIBO / 40.00 LETRO ng/mL
[11] = deproteinized QC high: nominal 200.00 PALBO / 8000.00 RIBO / 400.00 LETRO ng/mL
[12] = deproteinized QC low: nominal 0.50 PALBO / 20.00 RIBO / 1.00 LETRO ng/mL
[13] = deproteinized QC medium: nominal 20.00 PALBO / 800.00 RIBO / 40.00 LETRO ng/mL
[14] = QC high: nominal 200.00 PALBO / 8000.00 RIBO / 400.00 LETRO ng/mL
[15] = QC low: nominal 0.50 PALBO / 20.00 RIBO / 1.00 LETRO ng/mL
[16] = QC medium: nominal 20.00 PALBO / 800.00 RIBO / 40.00 LETRO ng/mL

N#Cc1ccc(C(c2ccc(C#N)cc2)n2cncn2)cc1 [LETRO, letrozole]
concentration at 15 h ([1]; LETRO 2.5 mg/day, last pill intake 15 h before sampling, read-out: I quantif. plasma concentration (Cmin)): 2.8 ng/mL
concentration at 15 h ([1]; LETRO 2.5 mg/day, reanalysis in second run, read-out: II quantif. plasma concentration (Cmin)): 2.9 ng/mL
concentration at 30 h ([1]; 30 h from last pills intake, read-out: I quantif. plasma concentration (Cmin)): 46.8 ng/mL
concentration at 30 h ([1]; reanalysis in second run, read-out: II quantif. plasma concentration (Cmin)): 46.9 ng/mL
II quantif. plasma concentration (Cmin) ([1]; patient 6, sample 8, PALBO 125 mg/day, LETRO 2.5 mg/day, reanalysis in second run): 67.8 ng/mL
Mean ± SD measured concentration, T = 4h (RT) [2, 8]: 372.54 ± 24.58 ng/mL
Acc. %, T = 4h (RT) [2, 8]: 93.1%
Mean ± SD measured concentration, T = 4h (RT) [2, 9]: 0.88 ± 0.06 ng/mL
Acc. %, T = 4h (RT) [2, 9]: 88.2%
Mean ± SD measured concentration, T = 4h (RT) [2, 10]: 37.95 ± 1.78 ng/mL
Acc. %, T = 4h (RT) [2, 10]: 94.9%
Mean ± SD measured concentration, T = 72 h in autosampler (4°C) [3, 11]: 426.23 ± 4.43 ng/mL
Acc. %, T = 72 h in autosampler (4°C) [3, 11]: 106.6%
Mean ± SD measured concentration, T = 72 h in autosampler (4°C) [3, 12]: 0.94 ± 0.07 ng/mL
Acc. %, T = 72 h in autosampler (4°C) [3, 12]: 93.9%
Mean ± SD measured concentration, T = 72 h in autosampler (4°C) [3, 13]: 44.45 ± 0.19 ng/mL
Acc. %, T = 72 h in autosampler (4°C) [3, 13]: 111.1%
Mean ± SD measured concentration, stored at -80ºC over 2 months (plasma) [4, 14]: 386.66 ± 6.61 ng/mL
Acc. %, stored at -80ºC over 2 months (plasma) [4, 14]: 96.7%
Mean ± SD measured concentration, stored at -80ºC over 2 months (plasma) [4, 15]: 0.88 ± 0.01 ng/mL
Acc. %, stored at -80ºC over 2 months (plasma) [4, 15]: 88.3%
Mean ± SD measured concentration, stored at -80ºC over 2 months (plasma) [4, 16]: 39.58 ± 0.90 ng/mL
Acc. %, stored at -80ºC over 2 months (plasma) [4, 16]: 99.0%
Mean ± SD measured concentration, stored at -20ºC over 2 months (methanol) [5, 14]: 413.47 ± 6.07 ng/mL
Acc. %, stored at -20ºC over 2 months (methanol) [5, 14]: 103.4%
Mean ± SD measured concentration, stored at -20ºC over 2 months (methanol) [5, 15]: 1.05 ± 0.03 ng/mL
Acc. %, stored at -20ºC over 2 months (methanol) [5, 15]: 105.1%
Mean ± SD measured concentration, stored at -20ºC over 2 months (methanol) [5, 16]: 44.12 ± 1.25 ng/mL
Acc. %, stored at -20ºC over 2 months (methanol) [5, 16]: 110.3%
LETRO mean plasma concentration (±SD) ([6]; ref 11 (Beer et al.)): 107.0 ng/mL and 107.0 ± 62.9 ng/mL
LETRO mean plasma concentration (range) ([6]; ref 22 (Desta et al.)): 89.7 (28.4–349.2) ng/mL
LETRO plasma concentration associated with longer time to tumour progression [7]: ≥ 85.6 ng/mL

— publication PMC7006908 (PLoS ONE, 2020)
